Source: article PMC10803289, “Transport and inhibition mechanism of the human SGLT2–MAP17 glucose transporter” (Nature Structural & Molecular Biology, 2023)
Substitutions are numbered along the chain they refer to. Where “and” joins values, the source holds several entries; their conditions need not be identical. Identical values can stand only once. Like-named read-outs stand apart in the source and are kept apart here.

How the values were obtained:
Assay type in all cases: cell-based
WT hSGLT2 = molecular target: T1, WT hSGLT2 (Homo sapiens, UniProt P31639); assay: α-MG uptake in hSGLT2-transfected HEK293 cells, WT
T1 construct: expressed in transfected cells; host or cells: HEK293 cells (ECACC 85120602)
T1 sequence (P31639 1-672): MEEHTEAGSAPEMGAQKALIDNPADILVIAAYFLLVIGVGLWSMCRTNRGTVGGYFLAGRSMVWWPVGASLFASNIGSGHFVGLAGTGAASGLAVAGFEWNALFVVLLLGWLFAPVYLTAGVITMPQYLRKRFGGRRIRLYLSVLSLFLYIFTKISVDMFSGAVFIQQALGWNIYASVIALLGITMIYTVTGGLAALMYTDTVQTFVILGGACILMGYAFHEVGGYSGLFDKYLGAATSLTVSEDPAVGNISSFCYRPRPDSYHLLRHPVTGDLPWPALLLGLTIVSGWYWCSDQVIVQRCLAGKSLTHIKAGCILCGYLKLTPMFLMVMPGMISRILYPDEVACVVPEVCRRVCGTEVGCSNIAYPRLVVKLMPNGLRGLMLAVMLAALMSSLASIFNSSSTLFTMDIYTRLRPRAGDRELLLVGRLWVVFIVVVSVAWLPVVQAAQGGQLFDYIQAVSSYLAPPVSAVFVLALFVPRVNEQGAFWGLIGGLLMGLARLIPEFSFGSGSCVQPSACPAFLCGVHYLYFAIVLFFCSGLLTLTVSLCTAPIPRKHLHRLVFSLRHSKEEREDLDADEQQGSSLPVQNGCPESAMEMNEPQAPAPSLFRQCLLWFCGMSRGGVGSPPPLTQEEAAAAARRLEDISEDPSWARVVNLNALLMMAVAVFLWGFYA
T1 sequence (Q13113 1-114 partner): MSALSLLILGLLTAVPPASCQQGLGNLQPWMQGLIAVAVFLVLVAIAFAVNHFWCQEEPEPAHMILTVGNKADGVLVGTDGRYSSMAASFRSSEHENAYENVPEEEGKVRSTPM
Experimental: (§1) HEK293 cells (ECACC 85120602) were maintained in Dulbecco’s modified Eagle medium (Gibco) supplemented with 10% fetal bovine serum (Thermo Scientific), 2 mM L-glutamine, 100 U ml^−1 benzylpenicillin and 100 µg ml^−1 streptomycin at 37 °C in a humidified atmosphere (5% CO2 in air). HEK293 cells were seeded at 1.0 × 10^5 cells per well in poly-L-lysine coated 24-well plates. The cells in each well were transiently transfected with 0.25 µg hMAP17 plasmid and 0.50 µg hSGLT2 plasmid using Lipofectamine 2000 (Life Technologies) and cultured for 48 h. […] After preincubation, uptake was initiated by replacing the preincubation buffer with extracellular fluid buffer containing 500 μM α-MG in the absence or presence of inhibitors. Uptake was completed by removing the uptake buffer and washing with ice-cold buffer three times, followed by solubilization in 1 N NaOH at room temperature.
(§2) Cell lysates were deproteinized by adding acetonitrile containing candesartan as the internal standard. The α-MG concentration was quantified via liquid chromatography–tandem mass spectrometry (LC–MS/MS) using the internal standard method.
(§3) Cellular protein content was determined using a bicinchoninic acid protein assay kit (Thermo Fisher Scientific). The uptake of α-MG was expressed as the ratio of concentration in the cells (in pmol per mg protein) to concentration in the medium (in pmol μl^−1); this is known as the cell-to-medium ratio (in μl per mg protein).
(§4) In the inhibition study, the cell-to-medium ratio of cells transfected with the empty vector was used as the background. The specific α-MG uptake was calculated by subtracting this background from the total cell-to-medium ratio and normalized to the uptake achieved without the inhibitor. IC50 was calculated via nonlinear regression using GraphPad Prism 8.4.3.
(§5) The concentrations of the extract solution from the filter plate and of the cell lysate were quantified using a tandem mass spectrometry QTRAP6500 System (SCIEX) coupled with an ACQUITY UPLC system (Waters) using the internal standard method. Mobile phases A and B used 10 mM of ammonium bicarbonate and acetonitrile, respectively.

hSGLT2 S74A = molecular target: T2, hSGLT2 S74A (Homo sapiens, UniProt P31639, S74A)
T2 construct: expressed in transfected cells; host or cells: Expi293 cells, crude membrane fraction

hSGLT2 F453A = molecular target: T3, hSGLT2 F453A (Homo sapiens, UniProt P31639, F453A); assay: α-MG uptake in HEK293 cells, F453A mutant; set-up: expressed in transfected cells
T3 sequence (P31639 1-672 F453A): T1 sequence (P31639 1-672) with F453A
T3 sequence (Q13113 1-114 partner): T1 sequence (Q13113 1-114 partner)
Description: hSGLT2 complementary DNA and human MAP17 cDNA were synthesized and codon-optimized for expression in human cell lines. Both cDNAs were cloned into the pcDNA3.4 vector. The hSGLT2 sequence was fused with an N-terminal signal sequence from human trypsinogen 1, a His10 tag, and sfGFP, followed by a human rhinovirus 3C protease (HRV3C protease) recognition site. Point mutations were introduced into this construct using site-directed mutagenesis. These plasmids were utilized for all experimental procedures conducted in this study.
as §1, §2, §3, §4, §5

T2 sequence (P31639 whole entry S74A, one chain of several): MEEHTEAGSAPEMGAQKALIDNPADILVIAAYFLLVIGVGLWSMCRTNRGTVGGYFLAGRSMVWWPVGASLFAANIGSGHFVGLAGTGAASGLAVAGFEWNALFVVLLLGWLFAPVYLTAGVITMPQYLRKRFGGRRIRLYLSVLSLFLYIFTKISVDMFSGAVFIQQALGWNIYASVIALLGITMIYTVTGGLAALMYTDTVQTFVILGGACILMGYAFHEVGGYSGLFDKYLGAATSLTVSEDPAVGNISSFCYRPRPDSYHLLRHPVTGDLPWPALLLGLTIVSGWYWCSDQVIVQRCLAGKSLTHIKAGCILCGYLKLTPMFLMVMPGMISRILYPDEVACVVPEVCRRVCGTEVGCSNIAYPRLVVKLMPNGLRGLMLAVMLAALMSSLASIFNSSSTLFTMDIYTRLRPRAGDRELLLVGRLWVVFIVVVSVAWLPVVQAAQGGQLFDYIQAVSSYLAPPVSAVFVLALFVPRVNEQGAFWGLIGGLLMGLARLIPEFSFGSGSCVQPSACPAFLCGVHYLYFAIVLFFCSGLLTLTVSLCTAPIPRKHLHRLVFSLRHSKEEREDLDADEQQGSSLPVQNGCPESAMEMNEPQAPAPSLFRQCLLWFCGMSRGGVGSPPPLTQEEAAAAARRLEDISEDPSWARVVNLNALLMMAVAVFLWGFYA

O=C(CCc1ccc(O)cc1)c1c(O)cc(O)cc1O[C@@H]1O[C@H](CO)[C@@H](O)[C@H](O)[C@H]1O [Phlorizin]
remaining activity at 0.0003 µM (WT hSGLT2; HEK293, Phlorizin 0.3 nM, WT, read-out: α-MG uptake (% of control)): 103% | remaining activity at 0.001 µM (WT hSGLT2; HEK293, Phlorizin 1 nM, WT, read-out: α-MG uptake (% of control)): 101% | remaining activity at 0.01 µM (WT hSGLT2; HEK293, Phlorizin 10 nM, WT, read-out: α-MG uptake (% of control)): 81.9% | remaining activity at 0.03 µM (WT hSGLT2; HEK293, Phlorizin 30 nM, WT, read-out: α-MG uptake (% of control)): 53.8% | remaining activity at 0.1 µM (WT hSGLT2; HEK293, Phlorizin 100 nM, WT, read-out: α-MG uptake (% of control)): 36.9% | remaining activity at 0.3 µM (WT hSGLT2; HEK293, Phlorizin 300 nM, WT, read-out: α-MG uptake (% of control)): 18.1% | α-MG uptake (% of control) (WT hSGLT2; Phlorizin 0.3 nM, WT): 107.5 % of control and 105.5 % of control | α-MG uptake (% of control) (WT hSGLT2; Phlorizin 1 nM, WT): 114.0 % of control and 107.4 % of control | α-MG uptake (% of control) (WT hSGLT2; Phlorizin 3 nM, WT): 83.9 % of control and 115.8 % of control and 121.5 % of control | α-MG uptake (% of control) (WT hSGLT2; Phlorizin 10 nM, WT): 71.6 % of control and 84.5 % of control | α-MG uptake (% of control) (WT hSGLT2; Phlorizin 30 nM, WT): 70.4 % of control and 72.9 % of control | α-MG uptake (% of control) (WT hSGLT2; Phlorizin 100 nM, WT): 38.1 % of control and 34.4 % of control | α-MG uptake (% of control) (WT hSGLT2; Phlorizin 300 nM, WT): 15.6 % of control and 11.8 % of control | α-MG uptake (% of control) (hSGLT2 S74A; Phlorizin 0.3 nM): 98.3 % of control and 109.0 % of control and 132.4 % of control | α-MG uptake (% of control) (hSGLT2 S74A; Phlorizin 1 nM): 94.4 % of control and 116.6 % of control and 114.8 % of control | α-MG uptake (% of control) (hSGLT2 S74A; Phlorizin 3 nM): 99.5 % of control and 109.8 % of control | α-MG uptake (% of control) (hSGLT2 S74A; Phlorizin 10 nM): 92.0 % of control and 68.8 % of control | α-MG uptake (% of control) (hSGLT2 S74A; Phlorizin 30 nM): 76.5 % of control and 90.7 % of control | α-MG uptake (% of control) (hSGLT2 S74A; Phlorizin 100 nM): 51.6 % of control and 68.4 % of control | α-MG uptake (% of control) (hSGLT2 S74A; Phlorizin 300 nM): 32.7 % of control and 25.1 % of control | α-MG uptake (% of control) (hSGLT2 F453A; Phlorizin 0.3 nM): 102.6 % of control and 120.9 % of control and 125.2 % of control | α-MG uptake (% of control) (hSGLT2 F453A; Phlorizin 1 nM): 103.4 % of control and 113.9 % of control and 124.6 % of control | α-MG uptake (% of control) (hSGLT2 F453A; Phlorizin 3 nM): 96.6 % of control and 95.6 % of control and 68.3 % of control | α-MG uptake (% of control) (hSGLT2 F453A; Phlorizin 10 nM): 133.1 % of control and 118.1 % of control and 89.5 % of control | α-MG uptake (% of control) (hSGLT2 F453A; Phlorizin 30 nM): 123.6 % of control and 119.1 % of control and 101.2 % of control | α-MG uptake (% of control) (hSGLT2 F453A; Phlorizin 100 nM): 126.1 % of control and 70.5 % of control and 71.8 % of control

CO[C@H]1O[C@H](CO)[C@@H](O)[C@H](O)[C@H]1O [α-MG, α-methyl-D-glucopyranoside]
α-MG uptake (WT hSGLT2; Control (no inhibitor), hSGLT2 cells): 23.4464 μL/mg-protein and 18.7820 μL/mg-protein and 14.3913 μL/mg-protein and 26.3540 μL/mg-protein | α-MG uptake (WT hSGLT2; Fig. 3h, WT): 101.43 μL/mg-protein and 101.01 μL/mg-protein and 97.56 μL/mg-protein | α-MG uptake (WT hSGLT2; time course, 500 μM α-MG, 15 min, hSGLT2): 4.1190 μL/mg-protein and 4.1163 μL/mg-protein and 6.4519 μL/mg-protein | α-MG uptake (WT hSGLT2; time course, 500 μM α-MG, 30 min, hSGLT2): 12.1536 μL/mg-protein and 10.6771 μL/mg-protein and 14.5344 μL/mg-protein | α-MG uptake (hSGLT2 S74A; Fig. 3h): 27.75 μL/mg-protein and 30.77 μL/mg-protein and 34.71 μL/mg-protein | α-MG uptake (hSGLT2 F453A; Fig. 3h): 21.78 μL/mg-protein and 20.01 μL/mg-protein and 27.75 μL/mg-protein
